We go through eight molecules from PubChem BioAssay (NCI).

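Each compound was tested at five concentrations against cells in 96-well plates for 48 hours. GI50: concentration for 50% inhibition of growth. The concentration for full growth arrest is given as TGI.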

Among the test systems are T-47D breast; OVCAR-4 ovarian; MDA-MB-231 breast; HCT-15 colon; UO-31 renal; NCI-H460 lung; DU-145 prostate; NCI/ADR-RES ovarian; SN12C renal; KM12 colon.
Common to all, as to assay: growth of human tumour cells (NCI), 48 h

For the molecule `O=C(O)C/C=C/CC(=O)O`, the TGI in the experiment with T-47D breast, in the experiment on OVCAR-4 ovarian, in the experiment with MDA-MB-231 breast, in the experiment on HCT-15 colon, in the experiment with UO-31 renal and with NCI-H460 lung was over 100 µM in each case. In addition, the TGI in the experiment on DU-145 prostate, in the experiment with NCI/ADR-RES ovarian, with SN12C renal and with KM12 colon was over 100 µM throughout.

For `O=C1C(=O)c2c(nc3ccc(Cl)cn23)-c2ccccc21`, the GI50 is 0.394 µM in the experiment with T-47D breast; 0.207 µM in the experiment on OVCAR-4 ovarian; 0.296 µM in the experiment with MDA-MB-231 breast; 1.08 µM in the experiment on HCT-15 colon; 0.306 µM in the experiment on UO-31 renal; 0.538 µM in the experiment with NCI-H460 lung. The GI50 is 0.223 µM in the experiment with DU-145 prostate, 0.344 µM in the experiment on NCI/ADR-RES ovarian, 0.219 µM in the experiment on SN12C renal and 1.78 µM with KM12 colon. Moreover, the TGI with T-47D breast was found to be 1.6 µM; in the experiment on OVCAR-4 ovarian, 0.463 µM; in the experiment with MDA-MB-231 breast, 3.95 µM; in the experiment with HCT-15 colon, 2.73 µM; in the experiment on UO-31 renal, 3.47 µM; with NCI-H460 lung it was 2.31 µM. Moreover, the TGI in the experiment on DU-145 prostate was found to be 0.452 µM; in the experiment with NCI/ADR-RES ovarian, 2.04 µM; in the experiment with SN12C renal, 0.567 µM; in the experiment on KM12 colon, 3.89 µM.

Take `C=CC(=O)N(C)[C@H]1C[C@H]2OC(C)(C1OC)n1c3ccccc3c3c4c(c5c6ccccc6n2c5c31)C(=O)NC4` (some centres undefined): the GI50 was 0.0774 µM in the experiment on T-47D breast; 0.0939 µM in the experiment with OVCAR-4 ovarian; 0.0783 µM in the experiment on MDA-MB-231 breast; 0.099 µM with HCT-15 colon; 0.018 µM in the experiment on UO-31 renal; 0.0876 µM in the experiment on NCI-H460 lung. Moreover, the GI50 in the experiment on DU-145 prostate was 0.124 µM; in the experiment with NCI/ADR-RES ovarian, 0.182 µM; in the experiment with SN12C renal, 0.0521 µM; in the experiment on KM12 colon it was 0.0228 µM. The TGI in the experiment on OVCAR-4 ovarian is over 50 µM; with MDA-MB-231 breast, 1.04 µM; in the experiment on HCT-15 colon, 0.644 µM; in the experiment with UO-31 renal, 0.0854 µM; with NCI-H460 lung, 1.01 µM; in the experiment with DU-145 prostate it was 18.7 µM. Moreover, the results for the TGI with NCI/ADR-RES ovarian, with SN12C renal and with KM12 colon were 3.59 µM, 0.931 µM and 0.79 µM, respectively.

For the molecule `COc1cc2nc(N3CCCC3)nc(NCC3CCCCC3)c2cc1OC`, the GI50 in the experiment with T-47D breast was 1.45 µM; in the experiment with OVCAR-4 ovarian, 1.25 µM; in the experiment with MDA-MB-231 breast it was 1.53 µM; in the experiment with HCT-15 colon it was 0.505 µM; with UO-31 renal, 1.1 µM; in the experiment with NCI-H460 lung it was 1.75 µM. The GI50 in the experiment on DU-145 prostate is 1.51 µM; in the experiment on NCI/ADR-RES ovarian it was 1.51 µM; with SN12C renal, 1.48 µM; with KM12 colon it was 1.63 µM. The TGI in the experiment with T-47D breast worked out at 3.51 µM; with OVCAR-4 ovarian it was 2.71 µM; in the experiment on MDA-MB-231 breast it was 3.04 µM; with HCT-15 colon, 1.8 µM; with UO-31 renal it was 2.38 µM; in the experiment with NCI-H460 lung, 3.35 µM. For the same molecule, the TGI in the experiment on DU-145 prostate is 2.92 µM; in the experiment with NCI/ADR-RES ovarian it was 3.47 µM; in the experiment on SN12C renal, 2.91 µM; with KM12 colon it was 3.13 µM.

Turning to `CCCn1c(C)nc2c1C(=O)c1ccccc1C2=O`, the GI50 is 35.1 µM with T-47D breast; 25 µM with OVCAR-4 ovarian; 34.1 µM with MDA-MB-231 breast; 14.2 µM in the experiment on HCT-15 colon; 9.06 µM in the experiment with UO-31 renal; 20.4 µM in the experiment on NCI-H460 lung. Besides, the GI50 in the experiment on DU-145 prostate was 23.5 µM; with NCI/ADR-RES ovarian, 22.9 µM; in the experiment on SN12C renal it was 25.5 µM; with KM12 colon, 32.2 µM. For the same molecule, the TGI in the experiment on T-47D breast is over 100 µM; with OVCAR-4 ovarian it was over 100 µM; in the experiment on MDA-MB-231 breast it was over 100 µM; in the experiment with HCT-15 colon it was over 100 µM; with UO-31 renal, 60.8 µM; in the experiment with NCI-H460 lung, 57.3 µM. In addition, the TGI in the experiment with DU-145 prostate, with NCI/ADR-RES ovarian, in the experiment on SN12C renal and with KM12 colon was over 100 µM in each case.

For `C=CC(=O)Nc1cccc(C)c1Nc1cc(-c2cccnc2Cc2c(C)c(OC)cc(OC)c2C)ncn1`, the GI50 in the experiment on T-47D breast was 7.92 µM; in the experiment with OVCAR-4 ovarian it was 20.6 µM; in the experiment on MDA-MB-231 breast, 5.65 µM; in the experiment with HCT-15 colon, 14.4 µM; in the experiment on UO-31 renal, 18.4 µM; in the experiment with NCI-H460 lung it was 4.91 µM. The GI50 with DU-145 prostate was 16.7 µM; in the experiment on NCI/ADR-RES ovarian it was 9.9 µM; in the experiment on SN12C renal, 11.2 µM; in the experiment on KM12 colon it was 13.4 µM. The TGI was over 100 µM in the experiment with T-47D breast; over 100 µM in the experiment on OVCAR-4 ovarian; 70.9 µM in the experiment with MDA-MB-231 breast; 47.2 µM in the experiment with HCT-15 colon; over 100 µM in the experiment on UO-31 renal; 31.7 µM with NCI-H460 lung. For the same molecule, the TGI is over 100 µM in the experiment with DU-145 prostate, 38 µM in the experiment on NCI/ADR-RES ovarian, 64.9 µM in the experiment with SN12C renal and 34.2 µM in the experiment on KM12 colon.

Consider `O=C(C1CCCCC1)[C@@H]1[C@]2(C(=O)NC3CCCCC32)[C@@H]2CCCN2[C@@]12C(=O)NC1CCC(Cl)CC12` (some centres undefined), for which the GI50 is 107 µM in the experiment with T-47D breast; 64.4 µM in the experiment with OVCAR-4 ovarian; 70.3 µM with MDA-MB-231 breast; 56.5 µM in the experiment with HCT-15 colon; 54.1 µM in the experiment with UO-31 renal; 134 µM with NCI-H460 lung. Besides, the GI50 with DU-145 prostate is 128 µM; in the experiment on NCI/ADR-RES ovarian it was 127 µM; in the experiment on SN12C renal it was 61.2 µM; in the experiment on KM12 colon, 130 µM. In addition, the TGI in the experiment on T-47D breast worked out at 279 µM; with OVCAR-4 ovarian, 218 µM; in the experiment on MDA-MB-231 breast it was 224 µM; with HCT-15 colon it was 211 µM; in the experiment with UO-31 renal, 226 µM; with NCI-H460 lung, 308 µM. Moreover, the TGI in the experiment on DU-145 prostate was 259 µM; in the experiment with NCI/ADR-RES ovarian, 310 µM; in the experiment on SN12C renal it was 197 µM; in the experiment on KM12 colon it was 273 µM.

Turning to `Cc1cc(N/N=C/c2nc(-c3ccc(Br)cc3)oc2C)c2cc(Cl)ccc2n1`, the GI50 in the experiment with T-47D breast, in the experiment with OVCAR-4 ovarian, in the experiment on MDA-MB-231 breast, in the experiment with HCT-15 colon, with UO-31 renal and with NCI-H460 lung was over 100 µM throughout. For the same molecule, the GI50 in the experiment on DU-145 prostate, with NCI/ADR-RES ovarian, with SN12C renal and in the experiment with KM12 colon was over 100 µM in each case. The TGI with T-47D breast, in the experiment on OVCAR-4 ovarian, in the experiment with MDA-MB-231 breast, in the experiment on HCT-15 colon, in the experiment with UO-31 renal and in the experiment with NCI-H460 lung was over 100 µM in each case. Moreover, the TGI in the experiment on DU-145 prostate, in the experiment on NCI/ADR-RES ovarian, in the experiment with SN12C renal and in the experiment with KM12 colon was over 100 µM throughout.
